Experimental data: US20130123460A1, “PEPTIDE FOR IMPROVING BIOSTABILITY OF BIOACTIVE SUBSTANCE, AND BIOACTIVE SUBSTANCE HAVING IMPROVED BIOSTABILITY” (priority 2010, published 2013)
Where a SMILES comes first, the peptide text is derived from it. Bridges are numbered along the chain shown (N, C = ends).

What was measured:
db/db mice = experiment: Sustained blood glucose-lowering effect in type 2 diabetes mellitus model mice; type: in vivo; conditions: subcutaneous, 50 nmol/kg
Procedure: The improvement of the biostability was evaluated using a duration time of blood glucose-lowering effect in vivo as an indicator. […] The blood glucose level was measured using Glucose Test Wako (Wako Pure Chemical Industries, Ltd.).

in vitro = conditions: SD, rat, plasma
Procedure: The plasma stability was evaluated in vitro, in order to inspect the biostability of the somatostatin peptide complex.
SD rats were anesthetized with diethyl ether, whole blood was collected, and a plasma fraction was separated therefrom. The somatostatin or somatostatin peptide complex was added to the plasma so that the final concentration thereof was 0.5 μmol/L, and the mixture was incubated at 37° C. A sample was recovered after 0, 8 or 48 hours, and a remaining rate was evaluated by an HPLC/MS measurement of an amount of the somatostatin or somatostatin peptide complex.

remaining at 8 h, 0.5 μmol/L (in vitro) | remaining at 48 h, 0.5 μmol/L (in vitro) | Compound | Time after administration at which the glucose-lowering effect disappeared (db/db mice)
– | – | [Ser8]-GLP-1(7-36)-NH2 [Comparative Example 2] | two hours
56% | 0% | CC[C@H](C)[C@H](NC(=O)[C@H](CCC(=O)O)NC(=O)[C@H](CC(=O)O)NC(=O)[C@@H](NC(=O)[C@H](CC(C)C)NC(=O)[C@H](C)NC(=O)[C@H](CCCCN)NC(=O)[C@@H](NC(=O)CNC(=O)[C@H](CCC(=O)O)NC(=O)[C@@H](NC(=O)[C@@H](NC(=O)[C@H](CCCCN)NC(=O)[C@H](C)NC(=O)[C@@H]1CSSC[C@H](NC(=O)CNC(=O)[C@H](C)N)C(=O)N[C@@H](CCCCN)C(=O)N[C@@H](CC(N)=O)C(=O)N[C@@H](Cc2ccccc2)C(=O)N[C@@H](Cc2ccccc2)C(=O)N[C@@H](Cc2c[nH]c3ccccc23)C(=O)N[C@@H](CCCCN)C(=O)N[C@@H]([C@@H](C)O)C(=O)N[C@@H](Cc2ccccc2)C(=O)N[C@@H]([C@@H](C)O)C(=O)N[C@@H](CO)C(=O)N1)[C@@H](C)O)C(C)C)C(C)C)[C@@H](C)CC)C(=O)N[C@@H](CC(C)C)C(=O)N[C@@H](C)C(=O)N[C@@H](C)C(N)=O [Example 28, SRIF(1-14)-GAm(28-44)-NH2] (H-AGCKNFFWKTFTSCAKTVEGVKALIDEILAA-NH2; disulfide 3-14; N-terminus assumed) | –
